Test results taken from EPA's ToxRefDB 2.

Experiments:
[1] = tested on: rat; settings: Multigenerational reproductive toxicity study, Sprague-Dawley, Oral, Feed, dose end: 2 generation
[2] = tested on: dog; settings: Chronic toxicity; beagle; Oral; Gavage/Intubation; dose end: 53 week; group: systemic; systemic / in life observation / clinical signs / stiffness + systemic / in life observation / clinical signs / tremors + systemic / …
[3] = tested on: rat; settings: Prenatal developmental toxicity study, sprague dawley, Oral, Gavage/Intubation, dose end: 18 GD
[4] = tested on: rat; settings: Subchronic oral toxicity in rodents, sprague dawley, Feed, dose end: 13 week, group: systemic
[5] = tested on: dog; settings: Subchronic oral toxicity in nonrodent, beagle, Gavage/Intubation, dose end: 14 week, group: systemic
[6] = tested on: rat; settings: Chronic toxicity, Oral, Diet, dose end: 53 week, group: systemic
[7] = tested on: rat; settings: Combined chronic toxicity/carcinogenicity, sprague dawley, Oral, Feed, dose end: 105 week, group: systemic
[8] = tested on: mouse; settings: Carcinogenicity, cd1, Oral, Feed, dose end: 81 week, group: systemic
[9] = tested on: rat; settings: Combined chronic toxicity/carcinogenicity, fischer, Oral, [Not Specified], dose end: 123 week, group: systemic
[10] = tested on: rabbit; settings: Prenatal developmental toxicity study, new zealand white, Oral, Gavage/Intubation, dose end: 19 GD
[11] = tested on: mouse; settings: Sub-acute repeat dose toxicity, cd1, Oral, Feed, dose end: 5 week, group: systemic
[12] = tested on: dog; settings: Chronic toxicity; beagle; Oral; Capsule; dose end: 52 week; group: systemic; systemic / in life observation / clinical signs / ataxia + systemic / in life observation / clinical signs / squinting + systemic / in life …
[13] = group: maternal, systemic / in life observation / body weight / body weight gain
[14] = group: offspring, developmental / developmental malformation / limb / [other] + systemic / in life observation / clinical signs / tremors
[15] = group: parental, systemic / pathology microscopic / brain / degeneration + systemic / pathology microscopic / spinal cord / degeneration + systemic / in life…
[16] = group: reproductive, reproductive / reproductive performance / fertility / fertility
[17] = group: developmental, developmental / developmental malformation / bone / full supernumerary + developmental / developmental malformation / bone / incomplete …
[18] = group: maternal, systemic / in life observation / body weight / body weight gain + systemic / in life observation / clinical signs / convulsions + systemic…
[19] = systemic / in life observation / body weight / body weight + systemic / in life observation / clinical signs / emaciation + systemic / in …
[20] = systemic / pathology microscopic / brain / degeneration + systemic / pathology microscopic / skeletal muscle / atrophy + systemic / in life …
[21] = systemic / pathology microscopic / brain / degeneration + systemic / pathology microscopic / skeletal muscle / atrophy + systemic / …
[22] = systemic / in life observation / clinical signs / locomotion + systemic / in life observation / clinical signs / motor activity + systemic…
[23] = systemic / in life observation / body weight / body weight + systemic / in life observation / body weight / body weight gain + systemic / in…
[24] = systemic / organ weight / liver / relative to body weight + systemic / pathology microscopic / liver / fatty change
[25] = systemic / organ weight / liver / relative to body weight + systemic / pathology microscopic / liver / fatty change + systemic / pathology …
[26] = systemic / organ weight / liver / absolute + systemic / organ weight / liver / relative to body weight + systemic / urinalysis / specific …
[27] = group: developmental, developmental / developmental malformation / bone / fused + developmental / developmental malformation / bone / thoracic hemivertebra
[28] = systemic / clinical chemistry / alanine aminotransferase (alt/sgpt) / alanine aminotransferase (alt/sgpt) + systemic / clinical chemistry / …
[29] = systemic / clinical chemistry / triglycerides / triglycerides

Question: With CC[C@H](C)[C@H]1O[C@]2(C=C[C@@H]1C)C[C@@H]1C[C@@H](C/C=C(\C)[C@@H](O[C@H]3C[C@H](OC)[C@@H](O[C@H]4C[C@H](OC)[C@@H](NC)[C@H](C)O4)[C@H](C)O3)[C@@H](C)/C=C/C=C3\CO[C@@H]4[C@H](O)C(C)=C[C@@H](C(=O)O1)[C@]34O)O2.O=C(O)c1ccccc1 [Emamectin benzoate] as the compound, how does the LEL [1, 13] read?
Answer: 1.8 mg/kg/day

Question: What about the LOAEL [1, 13] of the same compound?
Answer: 1.8 mg/kg/day

Question: What about the NEL [1, 13] of the same compound?
Answer: 0.6 mg/kg/day

Question: What about the NOAEL [1, 13] of the same compound?
Answer: 0.6 mg/kg/day

Question: And the LOAEL [1, 14]?
Answer: 1.8 mg/kg/day

Question: And the NEL [1, 14]?
Answer: 0.6 mg/kg/day

Question: And the NOAEL [1, 14]?
Answer: 0.6 mg/kg/day

Question: What about the LEL ([1]; group: offspring, developmental / developmental malformation / limb / [other] + systemic / in life observation / clinical signs / tremors + systemic / in life…) of the same compound?
Answer: 1.8 mg/kg/day

Question: And the LOAEL ([1]; group: parental, systemic / pathology microscopic / brain / degeneration + systemic / pathology microscopic / spinal cord / degeneration)?
Answer: 3.6 mg/kg/day

Question: What about the LEL [1, 15] of the same compound?
Answer: 3.6 mg/kg/day

Question: What about the NEL [1, 15] of the same compound?
Answer: 1.8 mg/kg/day

Question: What about the NOAEL [1, 15] of the same compound?
Answer: 1.8 mg/kg/day

Question: What about the LEL [1, 16] of the same compound?
Answer: 3.6 mg/kg/day

Question: And the LOAEL [1, 16]?
Answer: 3.6 mg/kg/day

Question: And the NEL [1, 16]?
Answer: 1.8 mg/kg/day

Question: And the NOAEL [1, 16]?
Answer: 1.8 mg/kg/day

Question: What about the LEL [2] of the same compound?
Answer: 0.5 mg/kg/day

Question: What about the LOAEL [2] of the same compound?
Answer: 0.5 mg/kg/day

Question: What about the NEL [2] of the same compound?
Answer: 0.25 mg/kg/day

Question: And the NOAEL [2]?
Answer: 0.25 mg/kg/day

Question: And the LEL [3, 17]?
Answer: 8 mg/kg/day

Question: And the LOAEL [3, 17]?
Answer: 8 mg/kg/day

Question: What about the NEL [3, 17] of the same compound?
Answer: 4 mg/kg/day

Question: What about the NOAEL [3, 17] of the same compound?
Answer: 4 mg/kg/day

Question: And the LEL [3, 13]?
Answer: 4 mg/kg/day

Question: And the LOAEL [3, 13]?
Answer: 4 mg/kg/day

Question: And the NEL [3, 18]?
Answer: 2 mg/kg/day

Question: And the NOAEL [3, 18]?
Answer: 2 mg/kg/day

Question: What about the LOAEL [4, 19] of the same compound?
Answer: 6.7 mg/kg/day

Question: And the NOAEL [4, 19]?
Answer: 2.5 mg/kg/day

Question: What about the LEL ([4]; systemic / pathology microscopic / eye / vacuolization) of the same compound?
Answer: 2.5 mg/kg/day

Question: And the NEL ([4]; systemic / pathology microscopic / eye / vacuolization + systemic / in life observation / body weight / body weight + systemic / in life …)?
Answer: 0.5 mg/kg/day

Question: And the NEL [5, 20]?
Answer: 0.25 mg/kg/day

Question: And the NOAEL [5, 20]?
Answer: 0.25 mg/kg/day

Question: What about the LEL [5, 21] of the same compound?
Answer: 0.5 mg/kg/day

Question: What about the LOAEL [5, 21] of the same compound?
Answer: 0.5 mg/kg/day

Question: What about the NEL ([6]; systemic / in life observation / body weight / body weight + systemic / in life observation / clinical signs / fur (altered appearance) + …) of the same compound?
Answer: 1 mg/kg/day

Question: What about the LEL [6, 22] of the same compound?
Answer: 2.5 mg/kg/day

Question: What about the LOAEL [6, 22] of the same compound?
Answer: 2.5 mg/kg/day

Question: What about the NOAEL [6, 22] of the same compound?
Answer: 1 mg/kg/day

Question: And the NEL ([7]; systemic / clinical chemistry / triglycerides / triglycerides + systemic / in life observation / body weight / body weight + systemic / …)?
Answer: 0.25 mg/kg/day

Question: And the LOAEL [7, 23]?
Answer: 2.51 mg/kg/day

Question: And the NOAEL [7, 23]?
Answer: 1.01 mg/kg/day

Question: And the LEL ([7]; systemic / pathology microscopic / skin / fibroma + systemic / pathology gross / skin / nodule(s) + systemic / clinical chemistry / …)?
Answer: 1.01 mg/kg/day

Question: For C=CCC1=C(C)C(OC(=O)C2C(C=C(C)C)C2(C)C)CC1=O (stereo not drawn) [Allethrin], which NEL [8, 24] is on record?
Answer: 71.6 mg/kg/day

Question: What about the NOAEL [8, 24] of the same compound?
Answer: 71.6 mg/kg/day

Question: What about the LEL [8, 25] of the same compound?
Answer: 350 mg/kg/day

Question: And the LOAEL [8, 25]?
Answer: 350 mg/kg/day

Question: What about the LOAEL ([9]; systemic / organ weight / liver / absolute + systemic / organ weight / liver / relative to body weight) of the same compound?
Answer: 24.5 mg/kg/day

Question: What about the LEL [9, 26] of the same compound?
Answer: 5.9 mg/kg/day

Question: And the NEL [9, 26]?
Answer: < 5.9 mg/kg/day

Question: And the NOAEL [9, 26]?
Answer: 5.9 mg/kg/day

Question: And the LEL [10, 27]?
Answer: 350 mg/kg/day

Question: What about the LOAEL [10, 27] of the same compound?
Answer: 350 mg/kg/day

Question: What about the NEL [10, 27] of the same compound?
Answer: 100 mg/kg/day

Question: What about the NOAEL [10, 27] of the same compound?
Answer: 100 mg/kg/day

Question: And the LEL [10, 18]?
Answer: 350 mg/kg/day

Question: What about the LOAEL [10, 18] of the same compound?
Answer: 350 mg/kg/day

Question: What about the NEL [10, 18] of the same compound?
Answer: 100 mg/kg/day

Question: What about the NOAEL [10, 18] of the same compound?
Answer: 100 mg/kg/day

Question: What about the LOAEL [11, 28] of the same compound?
Answer: 1520 mg/kg/day

Question: And the NOAEL [11, 28]?
Answer: 438 mg/kg/day

Question: And the LEL [11, 29]?
Answer: 14 mg/kg/day

Question: What about the NEL [11, 29] of the same compound?
Answer: < 14 mg/kg/day

Question: And the LEL [12]?
Answer: 20 mg/kg/day

Question: What about the LOAEL [12] of the same compound?
Answer: 20 mg/kg/day

Question: And the NEL [12]?
Answer: 6 mg/kg/day

Question: And the NOAEL [12]?
Answer: 6 mg/kg/day
